# Measured values published in patent publication US20080089884A1, “Compositions and methods for the modulation of detrusor activity” (priority 2006, published 2008).
# Columns and labels:
# urinary retention = details: randomized placebo controlled trials; cited from earlier work
# [1] = system: post-void residual in ambulatory older women; details: estrogen users, 204 ambulatory women, mean age 79 years; cited from earlier work
# [2] = system: primary rat detrusor muscle cultures; assay type: cell-based; details: 1 μg/ml, bladder smooth muscle cells, data not shown
# Protocol: Tissue culture. Primary bladder muscle cultures were derived from newborn Sprague-Daley rats (Charles River; Wilmington, Mass.). The bladders were harvested, minced and added to 3 ml dissociation solution containing 0.5 mg/ml collagenase, 0.5 mg/ml elastase, 2 μg/ml DNAse (Worthington, Lakewood, N.J.) and 1 mg/ml soybean trypsin inhibitor (Gibco, Carlsbad, Calif.). The tissue was triturated at 15 minute intervals for 45 minutes using fire polished pasteur pipets. The cell solution was filtered through a 40 μm cell strainer and spun at 1000 rpm for 5 minutes. […] The cell number was determined and cells were plated at a density of 25,000 cells/cm2 in poly-L-lysine coated (P-6282, Sigma) 12-well plates (#3513, Corning, Corning, N.Y.) for biochemical and flow cytometry studies and on plastic 8-well chamber slides (#354108, BD Bioscience, San Jose, Calif.) for immunohistochemistry or TUNEL staining. […]
# Apoptosis detection. […] Following treatment with rMIF, cells were analyzed using a kit (PF032, Calbiochem, San. Diego, Calif.) to separate apoptotic and necrotic cells on flow cytometry. […] Cells were analyzed using a Becton Dickenson FACS caliber flow cytometer with collection and analysis of data performed using Becton Dickinson CELLQuest software. TUNEL staining was detected using a kit (Roche) with DAB microscopy of cells grown 5-7 days in 8-well chamber slides. […]
# [3] = system: MIF protein release from rat bladder muscle culture cells; test: MIF ELISA of supernatants from rat bladder muscle cultures; assay type: cell-based; details: TNF-α 50 ng/ml for 24 hours, 3 separate cultures
# Protocol: Tissue culture. Primary bladder muscle cultures were derived from newborn Sprague-Daley rats (Charles River; Wilmington, Mass.). The bladders were harvested, minced and added to 3 ml dissociation solution containing 0.5 mg/ml collagenase, 0.5 mg/ml elastase, 2 μg/ml DNAse (Worthington, Lakewood, N.J.) and 1 mg/ml soybean trypsin inhibitor (Gibco, Carlsbad, Calif.). The tissue was triturated at 15 minute intervals for 45 minutes using fire polished pasteur pipets. The cell solution was filtered through a 40 μm cell strainer and spun at 1000 rpm for 5 minutes. The supernatant was aspirated and cells resuspended in DMEM-F/12 medium containing 1% FBS, 1% N-2 supplement and 1% Penicillin/Streptomycin (Gibco). The cell number was determined and cells were plated at a density of 25,000 cells/cm2 in poly-L-lysine coated (P-6282, Sigma) 12-well plates (#3513, Corning, Corning, N.Y.) for biochemical and flow cytometry studies and on plastic 8-well chamber slides (#354108, BD Bioscience, San Jose, Calif.) for immunohistochemistry or TUNEL staining. Cells were maintained at 37° C. and 5% CO2 in a humidified chamber. The presence of 1% FBS was required for the success of initial plating. […]
# MIF ELISA. […] MIF concentrations were calculated by extrapolation from a quadratic standard curve using human rMIF (range: 0-12 ng/ml, sensitivity: 150 pg/ml).
# [4] = system: bladder function, men with BPH; details: cited from earlier work
# [5] = system: incontinence due to detrusor over activity with DHIC; details: cited from earlier work
compound,measurement,setting,value
CC(C[N+](C)(C)C)OC(N)=O (stereo not drawn) [Bethanechol chloride],clinically-relevant outcomes,urinary retention,does not improve clinically-relevant outcomes
estrogen,mean PVR,[1],39.3 mL
C[C@@H]1C[C@@H]([C@H](O)CC2CC(=O)NC(=O)C2)C(=O)[C@@H](C)C1 [cyclohexamide],apoptosis or necrosis induced by cyclohexamide alone,[2],does not induce apoptosis or necrosis
TNF-α,increase in MIF protein levels detectable in the supernatant,[3],approximately 30%
CC(C)[N+](C)(CCOC(=O)C1c2ccccc2Oc2ccccc21)C(C)C [propantheline],acute urinary retention,[4],5/6
CCN(CC)CC#CCOC(=O)C(O)(c1ccccc1)C1CCCCC1 (stereo not drawn) [oxybutynin],decrease in daily incontinence frequency,"[5]; intention-to-treat, 64 subjects on immediate-release oxybutynin started at 2.5 mg and titrated",68%
same,"evaluable subjects with no end-study leakage, impaired contractility","[5]; on oxybutynin, 9/19 subjects",47%
same,"evaluable subjects with no end-study leakage, normal contractility","[5]; on oxybutynin, 25/35 subjects",71%
same,subjects with no incontinence episodes on the end-study bladder diary,[5]; subjects randomized to oxybutynin,34/64
